Experimental data reported in the supplement of paper PMC5579334.
± gives the standard deviation of the averaged measurements.

Experiments:
HS-PSS [1] = assay: drug sensitivity score (DSS, CellTiter-Glo viability, 72 h) (DSS (dimensionless)); higher = more sensitive; extreme values may be limits of the assay
Procedure, shortened: (§1)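 MPNST cell lines and primary human Schwann cells were seeded at 750–1000 cells per well into 384-well plates preprinted with each compound at five concentrations in 10-fold steps, then incubated 72 h at 37 °C, 5% CO2. CellTiter-Glo ATP luminescence gave viability, scaled between vehicle and positive-control wells, with duplicates averaged where present. Curves were fitted with a four-parameter logistic model. Percent inhibition refers to the top concentration, while drug sensitivity score and relative IC50, censored at the top concentration, come from these fits.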

HS-Sch-2 [2] = assay: as above
Procedure, shortened: as §1

[3] = tested on: HSC1 (primary human Schwann cells); assay: as above
Procedure, shortened: as §1

[4] = tested on: HSC2 (primary human Schwann cells); assay: as above
Procedure, shortened: as §1

S1507-2 [5] = assay: as above
Procedure, shortened: as §1

S462 [6] = assay: as above
Procedure, shortened: as §1

ST8814 [7] = assay: as above
Procedure, shortened: as §1

STS26T [8] = assay: as above
Procedure, shortened: as §1

YST-1 [9] = assay: as above
Procedure, shortened: as §1

HS-PSS [10] = assay: drug sensitivity score (DSS, CellTox-Green cytotoxicity, 72 h) (DSS (dimensionless)); higher = more cytotoxic; extreme values may be limits of the assay
Procedure, shortened: (§2)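 For 72 h at 37 °C, MPNST cell lines and primary human Schwann cells were exposed in 384-well plates to five 10-fold compound dilutions. CellTox-Green, added before seeding at a final 1:1000 dilution, gave fluorescence from DNA released by disrupted cells. Signals were scaled to vehicle and positive-control wells, cultures failing plate quality control were left out, and four-parameter logistic fits were applied. Relative IC50 and drug sensitivity score were derived from the fits, with IC50 censored at the top concentration.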

[11] = tested on: HSC1 (primary human Schwann cells); assay: as above
Procedure, shortened: as §2

[12] = tested on: HSC2 (primary human Schwann cells); assay: as above
Procedure, shortened: as §2

S1507-2 [13] = assay: as above
Procedure, shortened: as §2

ST8814 [14] = assay: as above
Procedure, shortened: as §2

STS26T [15] = assay: as above
Procedure, shortened: as §2

HS-PSS [16] = assay: % inhibition of CellTiter-Glo viability at highest tested concentration (72 h), relative to DMSO and benzethonium chloride controls; higher = more inhibition
Procedure, shortened: as §1

HS-Sch-2 [17] = assay: as above
Procedure, shortened: as §1

[18] = tested on: HSC1 (primary human Schwann cells); assay: as above
Procedure, shortened: as §1

[19] = tested on: HSC2 (primary human Schwann cells); assay: as above
Procedure, shortened: as §1

S1507-2 [20] = assay: as above
Procedure, shortened: as §1

S462 [21] = assay: as above
Procedure, shortened: as §1

ST8814 [22] = assay: as above
Procedure, shortened: as §1

STS26T [23] = assay: as above
Procedure, shortened: as §1

YST-1 [24] = assay: as above
Procedure, shortened: as §1

Row | Structure (SMILES) | drug sensitivity score (HS-PSS [1]) | drug sensitivity score (HS-Sch-2 [2]) | drug sensitivity score [3] | drug sensitivity score [4] | drug sensitivity score (S1507-2 [5]) | drug sensitivity score (S462 [6]) | drug sensitivity score (ST8814 [7]) | drug sensitivity score (STS26T [8]) | drug sensitivity score (YST-1 [9]) | drug sensitivity score (HS-PSS [10]) | drug sensitivity score [11] | drug sensitivity score [12] | drug sensitivity score (S1507-2 [13]) | drug sensitivity score (ST8814 [14]) | drug sensitivity score (STS26T [15]) | % inhibition (HS-PSS [16]) [%] | % inhibition (HS-Sch-2 [17]) [%] | % inhibition [18] [%] | % inhibition [19] [%] | % inhibition (S1507-2 [20]) [%] | % inhibition (S462 [21]) [%] | % inhibition (ST8814 [22]) [%] | % inhibition (STS26T [23]) [%] | % inhibition (YST-1 [24]) [%]
1 | CC[C@H](CO)Nc1nc(NCc2ccccc2)c2ncn(C(C)C)c2n1 [Seliciclib] (max concentration tested 10000 nM) | 2.39 | 0.52 | 0.597 | 1.23 | 0 | 1.26 ± 0.44 | 0 | 0.759 | 0 | 0.1 | 0 | 0 | 0 | 0 | 0 | 30.8 | 22.6 | 22.5 | 34.7 | -2.22 ± 4.7 | 32.2 ± 3.6 | 5.24 | 23.2 | 5.74
2 | Cn1cncc1[C@@](N)(c1ccc(Cl)cc1)c1ccc2c(c1)c(-c1cccc(Cl)c1)cc(=O)n2C [Tipifarnib] (max concentration tested 10000 nM) | 5.39 | 7.08 | 6.55 | 8.8 | 14.3 ± 0.82 | 10.58 ± 0.032 | 8.98 | 14 | 13.9 | 0 | 0.209 | 0 | 0 | 0 | 9.1 | 46.5 | 78 | 69.7 | 66.7 | 64.095 ± 0.013 | 75.3 ± 2 | 59.9 | 87.3 | 73.1
3 | c1ccc2c(CCNc3ccc(Nc4ccncc4)cc3)c[nH]c2c1 [Serdemetan] (max concentration tested 10000 nM) | 6.09 | 4.57 | 6.36 | 7.15 | 8.56 ± 0.85 | 10.8 ± 0.46 | 12.2 | 5.45 | 11.6 | 3.27 | 0.111 | 0 | 4.77 ± 0.64 | 12.5 | 3.19 | 95.3 | 96.2 | 65.5 | 70.3 | 93.39 ± 0.52 | 100.5 ± 0.77 | 99.5 | 78.5 | 92.5
4 | COc1cccc2c1C(=O)c1c(O)c3c(c(O)c1C2=O)C[C@@](O)(C(=O)CO)C[C@@H]3O[C@H]1C[C@H](N)[C@H](O)[C@H](C)O1 [Doxorubicin] (max concentration tested 1000 nM) | 7.71 | 10.2 | 11.9 | 11.2 | 10.6 ± 1.9 | 13.1 ± 0.35 | 9.59 | 12.7 | 13.9 | 0.81 | 0.0904 | 18 | 0.0502 ± 0.071 | 0 | 0.331 | 96.1 | 100 | 99.1 | 99.6 | 83.5 ± 6.7 | 98.561 ± 0.012 | 96.1 | 98.4 | 98.3
5 | O=C(c1ccc(OCCN2CCCCC2)cc1)c1c(-c2ccc(O)cc2)sc2cc(O)ccc12 [Raloxifene] (max concentration tested 10000 nM) | 4.8 | 7.33 | 2.17 | 3.34 | 2.99 ± 0.22 | 0.649 ± 0.51 | 1.9 | 1.99 | 1.7 | 0 | 0 | 0 | 1.4 ± 1.7 | 1.85 | 0.897 | 44.5 | 85.8 | 42.1 | 41.8 | 54.55 ± 0.068 | 19.7 ± 3.4 | 36.5 | 41.3 | 25.5
6 | Cn1cnc2c(F)c(Nc3ccc(Br)cc3Cl)c(C(=O)NOCCO)cc21 [Selumetinib] (max concentration tested 10000 nM) | 0.02 | 2.54 | 2.51 | 3.74 | 7.78 ± 3.3 | 5.86 ± 0.93 | 5.82 | 4.18 | 0 | 0 | 0 | 0 | 0.984 ± 0.39 | 1.43 | 0 | 12.8 | 35.6 | 41.3 | 44.1 | 50.8 ± 4.4 | 51.8 ± 5.1 | 51.4 | 33.6 | 5.28
7 | O=C(O)CC[C@H]1CC[C@@](c2cc(F)ccc2F)(S(=O)(=O)c2ccc(Cl)cc2)CC1 [MK-0752] (max concentration tested 1000 nM) | 0 | 0 | 1.49 | 1.16 | 0 | 0 | 0 | 0 | 0 | 0 | 0 | 0 | 0.0001 ± 0.00014 | 0 | 0 | 5.19 | 10.9 | 13.4 | 15.4 | -8.17 ± 8.2 | 6.43 ± 3.5 | -3.6 | 4.15 | 4.12
8 | CC(=O)O[C@H]1C(=O)[C@@]2(C)[C@H]([C@H](OC(=O)c3ccccc3)[C@]3(O)C[C@H](OC(=O)[C@H](O)[C@@H](NC(=O)c4ccccc4)c4ccccc4)C(C)=C1C3(C)C)[C@]1(OC(C)=O)CO[C@@H]1C[C@@H]2O [Paclitaxel] (max concentration tested 1000 nM) | 12.2 | 23.3 | 18 | 19.1 | 17.3 ± 0.6 | 28.8 ± 1.5 | 18.3 | 28.1 | 23.7 | 0 | 17.8 | 20.3 | 15.9 ± 1.1 | 18.6 | 33.8 | 45.7 | 93 | 70.6 | 73.9 | 84.6 ± 1 | 99.3 ± 1.5 | 94.5 | 99.6 | 81.6
